Reference: US9469674B2 (HAINAN UNIVERSITY, dated 2016)
Values joined by “and” are separate entries in the source; they are usually repeats but may differ in a detail not shown here. Equal values may be shown once. “Also recorded” adds a separate entry of the source. Read-outs that look alike come from different tables or passages of the source. Where no end group is shown, it is not given here.

How the values were obtained:
α3β2[K79A] nAChR mutant = α3β2[K79A] nAChR mutant (Rattus norvegicus, UniProt P04757+P12390, K103A); format: cell-based
[1] = tested on: Chronic Constriction Injury model of ischiadic nerve (neuralgia); details: rat, in vivo
α4β2 nAChR = α4β2 nAChR (Rattus norvegicus, UniProt P09483+P12390); experiment: cell-based
α3β2[Q34A] nAChR mutant = α3β2[Q34A] nAChR mutant (Rattus norvegicus, UniProt P04757+P12390, Q58A); format: cell-based
Sequence of α3β2[Q34A] nAChR mutant (P04757 26-499 limits assumed, stated change not applied): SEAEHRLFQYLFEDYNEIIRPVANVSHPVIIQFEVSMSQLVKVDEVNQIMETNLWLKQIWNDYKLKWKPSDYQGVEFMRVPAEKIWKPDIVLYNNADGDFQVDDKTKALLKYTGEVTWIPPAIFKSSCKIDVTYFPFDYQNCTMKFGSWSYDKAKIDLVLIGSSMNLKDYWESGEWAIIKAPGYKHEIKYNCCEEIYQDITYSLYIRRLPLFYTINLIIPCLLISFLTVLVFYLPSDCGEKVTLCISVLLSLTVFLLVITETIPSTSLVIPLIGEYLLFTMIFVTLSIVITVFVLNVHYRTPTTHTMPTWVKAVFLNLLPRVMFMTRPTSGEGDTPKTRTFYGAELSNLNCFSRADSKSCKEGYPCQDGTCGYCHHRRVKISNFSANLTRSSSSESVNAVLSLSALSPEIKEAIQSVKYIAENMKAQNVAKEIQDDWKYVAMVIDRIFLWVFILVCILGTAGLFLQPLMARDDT
Sequence of α3β2[Q34A] nAChR mutant (P12390 25-500 Q58A limits assumed): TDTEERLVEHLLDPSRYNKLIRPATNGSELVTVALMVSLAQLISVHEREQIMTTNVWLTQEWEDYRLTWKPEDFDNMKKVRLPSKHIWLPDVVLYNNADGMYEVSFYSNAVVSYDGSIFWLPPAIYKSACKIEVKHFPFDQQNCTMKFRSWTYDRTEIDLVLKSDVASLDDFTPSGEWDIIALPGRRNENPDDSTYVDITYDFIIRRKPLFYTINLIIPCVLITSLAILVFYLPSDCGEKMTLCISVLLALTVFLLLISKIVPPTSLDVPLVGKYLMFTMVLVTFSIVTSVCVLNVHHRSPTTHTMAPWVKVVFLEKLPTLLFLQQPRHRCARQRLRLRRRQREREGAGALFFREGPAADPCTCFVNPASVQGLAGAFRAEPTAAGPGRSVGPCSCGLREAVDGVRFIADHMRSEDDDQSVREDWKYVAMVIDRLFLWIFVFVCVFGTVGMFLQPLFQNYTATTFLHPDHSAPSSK

α9α10 nAChR = α9α10 nAChR (Rattus norvegicus, UniProt P43144+Q9JLB5); experiment: cell-based
α3β2[T59K] nAChR mutant = α3β2[T59K] nAChR mutant (Rattus norvegicus, UniProt P04757+P12390, T83K); format: cell-based
Sequence of α3β2[T59K] nAChR mutant (P04757 26-499 limits assumed, stated change not applied): as the sequence (P04757 26-499 limits assumed, stated change not applied) above
Sequence of α3β2[T59K] nAChR mutant (P12390 25-500 T83K limits assumed, stated change not applied): as the sequence (P12390 25-500 Q58A limits assumed) above, with A34Q, T59K counted along it

α3β2[V111I] nAChR mutant = α3β2[V111I] nAChR mutant (Rattus norvegicus, UniProt P04757+P12390, V135I); format: cell-based
Sequence of α3β2[V111I] nAChR mutant (P04757 26-499 limits assumed, stated change not applied): as the sequence (P04757 26-499 limits assumed, stated change not applied) above
Sequence of α3β2[V111I] nAChR mutant (P12390 25-500 V135I limits assumed, stated change not applied): as the sequence (P12390 25-500 Q58A limits assumed) above, with A34Q, V111I counted along it

human α3β2 nAChR [2] = target: human α3β2 nAChR (Homo sapiens, UniProt P17787+P32297); format: cell-based
α3β2 nAChR = α3β2 nAChR (Rattus norvegicus, UniProt P04757+P12390); experiment: cell-based; format: cell-based
α4β4 nAChR = α4β4 nAChR (Rattus norvegicus, UniProt P09483+P12392); experiment: cell-based; format: cell-based
human α6/α3β2β3 nAChR = human α6/α3β2β3 nAChR (Homo sapiens, UniProt P17787+P32297+Q15825); experiment: cell-based; format: cell-based
α3β4 nAChR = α3β4 nAChR (Rattus norvegicus, UniProt P04757+P12392); experiment: cell-based; format: cell-based
α3β2[T59L] nAChR mutant = α3β2[T59L] nAChR mutant (Rattus norvegicus, UniProt P04757+P12390, T83L); format: cell-based
Sequence of α3β2[T59L] nAChR mutant (P04757 26-499 limits assumed, stated change not applied): as the sequence (P04757 26-499 limits assumed, stated change not applied) above
Sequence of α3β2[T59L] nAChR mutant (P12390 25-500 T83L limits assumed, stated change not applied): as the sequence (P12390 25-500 Q58A limits assumed) above, with A34Q, T59L counted along it

α7 nAChR = α7 nAChR (Rattus norvegicus, UniProt Q05941); experiment: cell-based; format: cell-based
α2β2 nAChR = α2β2 nAChR (Rattus norvegicus, UniProt P12389+P12390); experiment: cell-based; format: cell-based
α3β2[T59I] nAChR mutant = α3β2[T59I] nAChR mutant (Rattus norvegicus, UniProt P04757+P12390, T83I); format: cell-based
[3] = tested on: hot-plate pain threshold in Kunming mice; details: mouse, in vivo
α6/α3β2β3 nAChR = α6/α3β2β3 nAChR (Rattus norvegicus, UniProt P04757+P12390+P43143); experiment: cell-based; format: cell-based
α6/α3β4 nAChR = α6/α3β4 nAChR (Rattus norvegicus, UniProt P04757+P12392+P43143); experiment: cell-based; format: cell-based
α3β2[F119Q] nAChR mutant = α3β2[F119Q] nAChR mutant (Rattus norvegicus, UniProt P04757+P12390, F143Q); format: cell-based
Sequence of α3β2[F119Q] nAChR mutant (P04757 26-499 limits assumed, stated change not applied): as the sequence (P04757 26-499 limits assumed, stated change not applied) above
Sequence of α3β2[F119Q] nAChR mutant (P12390 25-500 F143Q limits assumed, stated change not applied): as the sequence (P12390 25-500 Q58A limits assumed) above, with A34Q, F119Q counted along it

α7/5HT3 chimera = details: read-out: half-blocking dose IC50; cited from earlier work
[4] = target: α7 acetylcholine receptor (Homo sapiens, UniProt P36544); details: read-out: half-blocking dose IC50; cited from earlier work
[5] = target: α3β2 acetylcholine receptor (Homo sapiens, UniProt P17787+P32297); details: read-out: half-blocking dose IC50; cited from earlier work
[6] = target: α9α10 acetylcholine receptor (Homo sapiens, UniProt Q9GZZ6+Q9UGM1); details: read-out: half-blocking dose IC50; cited from earlier work
[7] = target: α3β4 acetylcholine receptor; details: read-out: half-blocking dose IC50; cited from earlier work
[8] = target: α4β2 acetylcholine receptor (Homo sapiens, UniProt P17787+P43681); details: read-out: half-blocking dose IC50; cited from earlier work
[9] = target: α6/α3β4 acetylcholine receptor; details: read-out: half-blocking dose IC50; cited from earlier work
[10] = target: α6/α3β2β3 acetylcholine receptor; details: read-out: half-blocking dose IC50; cited from earlier work
[11] = target: α4β4 acetylcholine receptor (Homo sapiens, UniProt P30926+P43681); details: read-out: half-blocking dose IC50; cited from earlier work
[12] = target: α2β4 acetylcholine receptor (Homo sapiens, UniProt P30926+Q15822); details: read-out: half-blocking dose IC50; cited from earlier work
human α3β2 nAChR [13] = target: human α3β2 nAChR (human, UniProt P32297); experiment: cell-based or functional assay
rat α4β4 nAChR = rat α4β4 nAChR (rat, UniProt P09483); experiment: cell-based or functional assay
rat α4β2 nAChR = rat α4β2 nAChR (rat, UniProt P09483); experiment: cell-based or functional assay
rat α2β2 nAChR = rat α2β2 nAChR (rat, UniProt P12389); experiment: cell-based or functional assay
rat α7 nAChR = rat α7 nAChR (rat, UniProt Q05941); experiment: cell-based or functional assay
rat α9α10 nAChR = rat α9α10 nAChR (rat, UniProt P43144); experiment: cell-based or functional assay
rat α2β4 nAChR = rat α2β4 nAChR (rat, UniProt P12389); experiment: cell-based or functional assay
[14] = read-out: IC50 (half-blocking dose)

In the case of `CC[C@H](C)[C@@H]1NC(=O)[C@H](CCC(=O)O)NC(=O)[C@@H]2CCCN2C(=O)[C@H](Cc2cnc[nH]2)NC(=O)[C@H](CC(=O)O)NC(=O)[C@H](C(C)C)NC(=O)[C@H](CC(N)=O)NC(=O)[C@@H]2CSSC[C@H](NC(=O)CN)C(=O)N[C@@H](CSSC[C@@H](C(N)=O)NC1=O)C(=O)N[C@@H](CO)C(=O)N[C@@H](Cc1cnc[nH]1)C(=O)N1CCC[C@H]1C(=O)N[C@@H](C)C(=O)N2` [LvIA/LvD21], the “Elution time after blocking” value (α3β2[K79A] nAChR mutant) is reported as 1 min, the “Hill slope of dose-response curves” value (α3β2[K79A] nAChR mutant) is reported as 0.86(0.43-1.30) and the “analgesic effect on neuralgia” value [1] is reported as “potent analgesic effects”. For the same molecule, the “analgesic effect times higher than that of morphine, same weight and dose” value [1] was 823-1176 times, the “average analgesic value (Mechanical Threshold, % of basal)” value [1] was 160% and the “mechanical threshold after withdrawal” value [1] was “significantly higher than that of morphine group”. The analgesic value ([1]; ip) was “far higher than morphine”, the “analgesic value in some cases (Mechanical Threshold, % of basal)” value ([1]; ip) was “up to 200%” and the “average analgesic value (Mechanical Threshold, % of basal)” value ([1]; ip) was “up to 200%”. The IC50 (α4β2 nAChR) was over 10000 nM, the IC50 (α4β2 nAChR; [14]) was over 10000 nM and the “Elution time after blocking” value (α3β2[Q34A] nAChR mutant) was 2 to 3 min. The “Hill slope of dose-response curves” value (α3β2[Q34A] nAChR mutant) was 0.90(0.22-1.58), the IC50 (α9α10 nAChR) was over 10000 nM and the IC50 (α9α10 nAChR; [14]) was over 10000 nM. For the same molecule, the “Elution time after blocking” value (α3β2[T59K] nAChR mutant) was 20 min, the “Hill slope of dose-response curves” value (α3β2[T59K] nAChR mutant) was 0.80(0.47-1.13) and the “blocking activity times higher than that to wild type α3β2 nAChR” value (from here on “blocking activity times higher than that”) (α3β2[T59K] nAChR mutant) was 15 times. The current blocked (α3β2[T59K] nAChR mutant) was “blocked all current”, the “Elution time after blocking” value (α3β2[V111I] nAChR mutant) was 1 min and the “Hill slope of dose-response curves” value (α3β2[V111I] nAChR mutant) was 1.31(0.66-1.96). For the same molecule, the current blocked (α3β2[V111I] nAChR mutant) was “does not block at all; also recorded: totally did not block”, the “Hill slope of dose-response curve” value (human α3β2 nAChR [2]) was 0.81 (0.44-1.18) and the “blocking activity to α3β2 times higher than to α6/α3β2β3” value (human α3β2 nAChR [2]) was about 305 times. The “% of recovered current within elution time” value (α3β2 nAChR) was 100%, the “Hill slope of dose-response curve” value (α3β2 nAChR) was 1.17 (0.88-1.46) and the “Hill slope of dose-response curves” value (α3β2 nAChR) was 1.17(0.79-1.54). The “blocking activity to α3β2 times higher than to α6/α3β2β3” value (α3β2 nAChR) was about 100 times, the “blocking of ACh-gated current” value (α3β2 nAChR) was “specifically blocks; also recorded: completely blocks” and the current blocked (α3β2 nAChR) was “about 50%”. The “time to complete elution after block” value (α3β2 nAChR) was at most 2 min, the IC50 (α4β4 nAChR) was over 10000 nM and the IC50 (α4β4 nAChR; [14]) was over 10000 nM. The “Hill slope of dose-response curve” value (human α6/α3β2β3 nAChR) was 0.85 (0.55-1.15), the IC50 (human α6/α3β2β3 nAChR) was 5340 nM and the “Hill slope of dose-response curve” value (α3β4 nAChR) was 1.14 (0.72-1.55). The “Elution time after blocking” value (α3β2[T59L] nAChR mutant) was 5 to 8 min, the “Hill slope of dose-response curves” value (α3β2[T59L] nAChR mutant) was 1.07(0.77-1.37) and the “blocking activity times higher than that” value (α3β2[T59L] nAChR mutant) was 7 times. For the same molecule, the “Hill slope of dose-response curve” value (α7 nAChR) was 0.65 (0.43-0.87), the IC50 (α2β2 nAChR) was over 10000 nM and the “blocking of ACh-gated current” value (α2β2 nAChR) was “totally does not block; also recorded: no blocking activity”. For the same molecule, the IC50 (α2β2 nAChR; [14]) was over 10000 nM, the “Elution time after blocking” value (α3β2[T59I] nAChR mutant) was 2 min and the “Hill slope of dose-response curves” value (α3β2[T59I] nAChR mutant) was 1.15(0.43-1.86). For the same molecule, the “analgesic effect times higher than that of morphine, same weight and dosage” value [3] was 764-882 times, the pain threshold [3] was 30 s and the “pain threshold in comparison with the pain threshold of morphine” value [3] was 1.3-1.5 times and 1.3 times. The “Hill slope of dose-response curve” value (α6/α3β2β3 nAChR) was 0.60(0.48-0.72), the “Hill slope of dose-response curve” value (α6/α3β4 nAChR) was 0.94 (0.66-1.22) and the “Elution time after blocking” value (α3β2[F119Q] nAChR mutant) was 12 min and 10 to 12 min. For the same molecule, the “Hill slope of dose-response curves” value (α3β2[F119Q] nAChR mutant) was 1.12(0.79-1.44), the “blocking activity times higher than that” value (α3β2[F119Q] nAChR mutant) was 25 times and the current blocked (α3β2[F119Q] nAChR mutant) was “blocked all current”.

In the case of GCCSDPRCAWR----C* [ImI], the IC50 (α7/5HT3 chimera) is listed as 217 nM, the IC50 [4] is listed as 595 nM and the IC50 [5] is listed as 41 nM. The IC50 [6] was 2000 nM and the IC50 [7] was 3390 nM.

For GCCSHPACAGNNQHIC* [GIC], the IC50 [8] is listed as 309 nM, the IC50 [5] is listed as 1.1 nM and the IC50 [7] is listed as 755 nM.

In the case of GCCSTPPCAVLY---C* [BuIA], the IC50 [9] is listed as 1.54 to 2.1 nM, the IC50 [10] is listed as 0.26 to 0.46 nM and the IC50 [11] is listed as 69.9 nM. The IC50 [4] was 272 nM, the IC50 [5] was 5.72 nM and the IC50 [12] was 121 nM. For the same molecule, the IC50 [7] was 27.7 nM.

With GCCSHPACNVDHPEIC (not fully specified; ends and bridges not checked) [α-conotoxin LvIA/LvD21] the “IC50 (half-blocking dose) on ACh-gated current” value (“IC50 (half-blocking dose)” for short) (human α3β2 nAChR [13]) was 17.5 nM, the “IC50 (half-blocking dose)” value (rat α4β4 nAChR) was over 10000 nM and the “IC50 (half-blocking dose)” value (rat α4β2 nAChR) was over 10000 nM. For the same molecule, the “IC50 (half-blocking dose)” value (rat α2β2 nAChR) was over 10000 nM, the “IC50 (half-blocking dose)” value (rat α7 nAChR) was 3000 nM and the “IC50 (half-blocking dose)” value (rat α9α10 nAChR) was over 10000 nM. For the same molecule, the “IC50 (half-blocking dose)” value (rat α2β4 nAChR) was 15500 nM.
